# Data from ChEMBL document CHEMBL1136087, “Synthesis of radiolabeled biphenylsulfonamide matrix metalloproteinase inhibitors as new potential PET cancer imaging agents” (Bioorg Med Chem Lett, 2003).
# Target: Collagenase 3 (Homo sapiens) (UniProt P45452)
# Assay: Inhibition of human matrix metalloprotease-13 at 20 nM
row,SMILES,Inhibition effect
1,COc1ccc(-c2ccc(S(=O)(=O)N[C@H](C(=O)O)C(C)C)cc2)cc1,0.938
2,CC(C)[C@H](NS(=O)(=O)c1ccc(-c2ccc([N+](=O)[O-])cc2)cc1)C(=O)O,0.897
3,COC(=O)[C@@H](NS(=O)(=O)c1ccc(-c2ccc(F)cc2)cc1)C(C)C,0.91
4,CC(C)[C@H](NS(=O)(=O)c1ccc(-c2ccc(F)cc2)cc1)C(=O)O,0.918
5,COC(=O)[C@@H](NS(=O)(=O)c1ccc(-c2ccc([N+](=O)[O-])cc2)cc1)C(C)C,0.883

# Results, then the compound that gave them:
row,Inhibition effect,SMILES
1,0.939,COC(=O)[C@@H](NS(=O)(=O)c1ccc(-c2cccc(OC)c2)cc1)C(C)C
2,0.942,COC(=O)[C@@H](NS(=O)(=O)c1ccc(-c2ccccc2OC)cc1)C(C)C
3,0.919,COC(=O)[C@@H](NS(=O)(=O)c1ccc(-c2cccc(F)c2)cc1)C(C)C
4,0.935,COC(=O)[C@@H](NS(=O)(=O)c1ccc(-c2ccc(OC)cc2)cc1)C(C)C
5,0.922,COC(=O)[C@@H](NS(=O)(=O)c1ccc(-c2ccccc2F)cc1)C(C)C
